“Also recorded” adds a separate entry of the source.
Experiments:
mTORC1 = target: T1, mTORC1 (Mus musculus, UniProt P26883+Q9JLN9); test: Phospho-S6 (P-S6) immunostain as mTORC1 reporter in intestine / sorted Paneth cells; format: in vivo, mice
T1 construct: from tissue; host or cells: mouse small intestine sections, isolated crypts and sorted Paneth cells
Description: Mice were housed in the Unit for Laboratory Animal Medicine at the Whitehead Institute for Biomedical Research. Lgr5-EGFP-IRES-CreERT2 mice (Strain name: B6.129P2-Lgr5tm1(cre/ERT2)Cle/J, Stock Number: 008875) were purchased from Jackson Laboratories. UbiquitinC-CreERT2 mice were obtained from the Jackson Laboratory (Strain Name: B6; 129S-Tg(UBC-cre/ERT2)1Ejb/J, Stock Number: 007001). Rictor floxed mice were generated as described in^27 and backcrossed to C57BL/6 for at least 6 generations. TSC1^loxp/loxp mice were the generous gift of D. Kwiatkowski (Harvard Medical School) and backcrossed to C57BL/6 for at least 6 generations. Rosa26-CreERT2 mice (Rosa26 or R26) were obtained from the Jackson Laboratory (Strain 15 Name: B6.129-Gt(ROSA)26Sor^iml(cre/ERT2)Tyj/J, Stock Number 008463). CR was achieved by providing individual or paired mice a daily portion of a chow diet fortified with vitamins and minerals amounting to 60% of the daily food intake of their ad libitum counterparts^20. All adult mice used in CR experiments were between the ages of 10 to 24 weeks and were sacrificed prior to their daily feeding. Rictor or TSC1 was excised by treatment with tamoxifen suspended in corn or sunflower seed oil (Spectrum) at a concentration of 10 mg/mL, and 200 μl per 25 g of body weight was injected intraperitoneally into mice once daily for 5-7 days. […] Mice were allowed to recover for at least 7 days after the last tamoxifen injection prior to any experiments. In vivo fate mapping in Lgr5-EGFP-IRES-reERT2; Rosa26loxpstoploxp-LacZ compound mice was done with a single injection of tamoxifen given at 200 μl per 25 g. As described previously^28, Rapamycin (LC Laboratories) was administered by intraperitoneal injection for 7 to 28 consecutive doses at 4 mg/kg. It was reconstituted in absolute ethanol at 10 mg/ml and diluted in 5% Tween-80 (Sigma) and 5% PEG-400 (Hampton Research) before injection. The final volume of all injections was 200 μl. Regular insulin (Lilly) was administered at 0.75 U/kg diluted in PBS 20 minutes prior to sacrificing fasted mice. […]

AL and CR-derived crypts = test: Crypt culture organoid formation with agent added to culture media; format: cell-based, mice; conditions: for organoid forming capacity of AL and CR-derived crypts: 100 nM, FIG. 4h
Method: Small intestines were removed and the fat/mesentery was dissected away. The intestinal lumen was washed with ice cold PBS (Mg—/Ca—) using a 18 G feeding needle (Roboz FN-7905) until the intestines appeared white/pink. They were then opened longitudinally. The mucous was removed by gently rubbing the intestine between fingers in cold PBS. The intestines were cut into 3 to 5 mm fragments and placed into 50 ml conical tubes that were fill with ice cold 30 ml of PBS (Mg—/Ca—)/EDTA (10 mM). The samples were incubated and shook intermittently on ice for 30 minutes continuously discarding and replacing (at least 3 times) the supernatant. The fragments were then continually resuspended with ice cold 30 ml PBS (Mg—/Ca—)/EDTA (10 mM) and intermittently shook on ice for 10 minutes, discarding the supernatant again for 3 times. The fragments were resuspended again with ice cold 30 ml PBS (Mg—/Ca—)/EDTA (10 mM) and incubated and intermittently shook while waiting on ice for 20 to 40 minutes. The samples were then triturated with a 10 ml pipette 1 to 2 times, and the contents were filtered twice through a 70-μm mesh (BD Falcon) into a 50 ml conical tube to remove villous material and tissue fragments. At this point the suspension was mainly composed of crypts. Crypts were removed from this step for crypt culture experiments and embedded in matrigel with crypt culture media. For ISC isolation, the crypt suspensions were centrifuged for 5 minutes at 250 g (4 C or room temperature). The pellets were gently resuspended in 1.0 ml of undiluted TrypLE Express (Invitrogen)+120 μl of DNase I (10 U/μl, Roche) and transferred to 15 ml conical tubes. The samples were incubated in a 32° C. water bath for 1.25 to 2 minutes, were not titurated, and were then placed on ice. 12 ml of cold SMEM was added to each sample and were gently triturated twice. […]
Isolated crypts were counted and embedded in matrigel (BD Bioscience 356231 growth factor reduced) that contains 1 μM Jagged (Ana-Spec) at 5-10 crypts/μl and cultured in a modified form of medium as described in^3. […]

Bst-1 = target: T2, Bst-1 (Mus musculus, UniProt Q64277); test: Bst-1 siRNA knock-down in CR-derived crypts, organoid formation; format: cell-based, mice; conditions: cADPR added to siRNA-treated crypts
T2 construct: endogenous in cells; host or cells: primary small-intestinal crypts from calorie-restricted mice, cultured in matrigel
T2 sequence (Q64277 25-286): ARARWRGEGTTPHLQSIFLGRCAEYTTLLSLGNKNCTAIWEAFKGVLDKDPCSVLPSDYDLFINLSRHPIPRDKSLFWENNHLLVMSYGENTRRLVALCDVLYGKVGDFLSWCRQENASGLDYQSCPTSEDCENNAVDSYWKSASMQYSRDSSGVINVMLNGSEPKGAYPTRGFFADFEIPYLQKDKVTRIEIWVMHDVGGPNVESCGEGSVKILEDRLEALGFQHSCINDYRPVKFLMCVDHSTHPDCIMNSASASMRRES
Method: Isolated ISCs or Paneth cells were centrifuged for 5 minutes at 250 g and then resuspended in the appropriate volume of crypt culture medium (500-1000 cells/μl) supplemented with 1×N2 (Invitrogen), 1×B27 (Invitrogen), 100 ng/ml Wnt-3A (R&D), and with additional 500 ng/ml R-Spondin to yield 1 μg/ml final concentration. ISCs were then seeded into matrigel (BD Bioscience 356231 growth factor reduced) containing 1 μM Jagged (Ana-Spec) up to 5,000-10,000 cells/30-50 μl. 30 μl drops of 65% matrigel were plated onto a flat bottom 48-well plate (Corning 3548) and then Paneth cells were added at the same cell count to the top of the matrigel drop. Alternatively, ISCs and Paneth cells were mixed after sorting in a 1:1 ratio, centrifuged, and then seeded into matrigel. The matrigel drops with ISCs and Paneth cells were allowed to solidify for 20 to 30 minutes in a 37° C. incubator. […] Organoid bodies were quantitated on days 3, 7, and 9 days of culture, unless otherwise specified. In subcloning experiments, either individual or cultures of organoids were manually disrupted as indicated in the text on day 7-9 by rigorous tituration and replated into fresh matrigel; these secondary organoid bodies were quantitated on day 18 after initiation of the primary cultures. […]

insulin: Regular insulin (Lilly) administered at 0.75 U/kg to fasted mice
P-S6 in sorted Paneth cells from fasted mice (mTORC1; 20 minutes after injection, FIG. 2b): induced
mTORC1 activity (P-S6) in Paneth cells (mTORC1; fasted mice, insulin 0.75 U/kg, FIG. 2a): activates mTORC1 in Paneth cells

N=c1c2ncn3c2ncn1[C@@H]1O[C@H](COP(=O)(O)OP(=O)(O)OC[C@H]2O[C@@H]3[C@H](O)[C@@H]2O)[C@@H](O)[C@H]1O [cADPR, cyclic ADP ribose]
organoid forming potential (clonogenicity and size) of AL crypts (AL and CR-derived crypts; 50 μM added to culture media, FIG. 4e): significantly improved the clonogenicity and size of AL-derived organoid bodies; also recorded: increased the organoid forming potential of AL crypts to an extent similar to those of CR crypts
rescue of function of Bst-1 knock-down CR crypts (Bst-1): sufficient to rescue the function of these crypts

OCCN(CCO)c1nc(N2CCCCC2)c2nc(N(CCO)CCO)nc(N3CCCCC3)c2n1 [Dipyridamole]
organoid forming capacity of AL and CR-derived crypts (AL and CR-derived crypts): reduced the organoid forming capacity of AL and CR-derived crypts to a similar level
organoid forming capacity of AL and CR-derived crypts (AL and CR-derived crypts; listed as dipyridamole): reduced the clonogenicity of CR and AL-derived crypts to same level
